Assay results: PubChem BioAssay (NCI)
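Following 48 hours of exposure in 96-well plates, responses at five concentrations were used to interpolate endpoints linearly. The concentration for full growth arrest is given as TGI.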 Where a SMILES comes first, the peptide text is derived from it.

Tests used:
Assay in all cases: inhibition of tumour cell growth, NCI panel, 48 h
SK-MEL-5 melanoma = tested on: SK-MEL-5 melanoma
NCI-H522 lung = tested on: NCI-H522 lung
CAKI-1 renal = tested on: CAKI-1 renal
HOP-62 NSCLC = tested on: HOP-62 NSCLC
MOLT-4 leukemia = tested on: MOLT-4 leukemia
MALME-3M melanoma = tested on: MALME-3M melanoma
HCT-15 colon = tested on: HCT-15 colon
SK-OV-3 ovarian = tested on: SK-OV-3 ovarian
SF-295 CNS = tested on: SF-295 CNS
OVCAR-5 ovarian = tested on: OVCAR-5 ovarian
NCI-H226 lung = tested on: NCI-H226 lung
SNB-75 CNS = tested on: SNB-75 CNS
EKVX NSCLC = tested on: EKVX NSCLC

Row | SMILES | TGI (SK-MEL-5 melanoma) [µM] | TGI (NCI-H522 lung) [µM] | TGI (CAKI-1 renal) [µM] | TGI (HOP-62 NSCLC) [µM] | TGI (MOLT-4 leukemia) [µM] | TGI (MALME-3M melanoma) [µM] | TGI (HCT-15 colon) [µM] | TGI (SK-OV-3 ovarian) [µM] | TGI (SF-295 CNS) [µM] | TGI (OVCAR-5 ovarian) [µM] | TGI (NCI-H226 lung) [µM] | TGI (SNB-75 CNS) [µM] | TGI (EKVX NSCLC) [µM]
1 | Cc1cccc2c1[C@]13OC(C)[C@]4(C)CC5OC(=O)[C@@]1(C)[C@@H]5[C@]34C(=O)O2 (some centres not stated) | > 100 | > 100 | > 100 | > 100 | > 100 | > 100 | > 100 | > 100 | > 100 | > 100 | > 100 | > 100 | > 100
2 | O=c1cc(-c2ccccc2)[nH]c2cc3c(cc12)OCO3 | 51.3 | 13.4 | – | > 90.3 | > 100 | > 82.9 | > 100 | 26 | > 42.3 | > 100 | 27.5 | 43.3 | > 100
3 | CC1(C#N)CC(C)(C)C(/C=C2/CC(C)(C)C(/C=C3/OC(=N)CC3(C)C)=N2)=N1 (configuration not stated) | 32.4 | 34 | > 100 | 56.6 | 89.7 | 20 | 44.1 | 61 | 60.9 | > 100 | > 100 | > 100 | 51.6
4 | O=C(CC(c1ccccc1)N1CCCCC1)c1ccccc1 (configuration not stated) | 29.6 | 28.6 | 30.3 | 33.9 | 3.92 | 30.7 | 36.6 | 31.4 | 31.2 | 32.9 | 37.4 | 31.4 | 34.5
5 | Clc1ccc(-c2c(C3=NCCN3)nnn2-c2ccc(Cl)cc2)cc1 | 30.5 | 30.1 | > 100 | > 100 | 29 | 33.9 | > 100 | 93.3 | 38.9 | > 100 | > 100 | 48.3 | > 100
6 | COC(CN(C(=O)c1ccccc1)C1CCC2(SCCS2)c2[nH]c3ccccc3c21)OC (configuration not stated) | > 100 | 65.4 | > 100 | > 100 | > 100 | > 100 | > 100 | – | 13.9 | > 100 | > 100 | > 100 | > 100
7 | COC(=O)C(=C/c1ccc(OC)cc1)/C(C(=O)O)=C(/C)c1ccccc1 | > 100 | > 100 | > 100 | > 100 | > 100 | > 100 | > 100 | > 100 | > 100 | > 100 | > 100 | > 100 | > 100
8 | CC(=O)N(C(=O)CC(=O)N/N=C\c1ccc(Br)c(N(CCC#N)CCC#N)c1)c1ccc(Cl)cc1 | – | – | > 100 | > 100 | > 100 | > 100 | > 100 | > 100 | > 100 | 55.9 | > 100 | > 100 | > 100
9 | CCC(C)C(NC(=O)C(CCCCN)NC(=O)C(NC(=O)C(CCC(N)=O)NC(=O)C(N)CCCNC(=N)N)C(C)CC)C(=O)NC(Cc1c[nH]c2ccccc12)C(=O)NC(Cc1ccccc1)C(=O)NC(CCC(N)=O)C(=O)NC(CC(N)=O)C(=O)NC(CCCNC(=N)N)C(=O)NC(CCCNC(=N)N)C(=O)NC(CCSC)C(=O)NC(CCCCN)C(=O)NC(Cc1c[nH]c2ccccc12)C(=O)NC(CCCCN)C(=O)NC(CCCCN)C(=O)N1CCCC1C(=O)NC(C)C(=O)NC(CCCCN)C(=O)NC(CCCNC(=N)N)C(=O)NC(CCCCN)C(=O)NC(CC(C)C)C(=O)NC(Cc1ccccc1)C(=O)NCC(=O)O (configuration not stated) (H-RQIKIWFQNRRMKWKKPAKRKLFG-OH; configuration not given here) | > 25 | > 25 | > 25 | > 25 | > 25 | 18.3 | > 25 | > 25 | > 25 | > 25 | > 25 | > 25 | > 25
10 | C=CCNC1=C2C[C@@H](C)C[C@@H](OC)[C@@H](OC(=O)CCCN)[C@H](C)/C=C(\C)[C@@H](OC(N)=O)[C@H](OC)/C=C\C=C(/C)C(=O)NC(=CC1=O)C2=O | 33.7 | 26.4 | 35.3 | 18.9 | 40.2 | 27.8 | 41.2 | 28.7 | 31.6 | 31.8 | 36.3 | 22.2 | 39.1
11 | c1cc(-c2ncc(-c3ccc4c(c3)CCCO4)o2)ccn1 | 21.2 | 16.7 | > 100 | > 100 | 17.3 | 50.8 | 69.7 | 93.5 | > 100 | > 100 | > 100 | 53.5 | > 100
12 | CC(=O)Oc1ccccc1-c1cc2ccccc2oc1=O | – | > 100 | – | > 100 | > 100 | > 100 | > 100 | – | > 100 | > 100 | > 100 | > 100 | > 100
13 | CC1=NC(=Cc2ccc(O)cc2)C(=O)N1n1c(-c2ccccc2)nc2ccccc2c1=O | > 100 | > 100 | > 100 | > 100 | > 100 | > 100 | > 100 | > 100 | > 100 | – | > 100 | > 100 | > 100
14 | N#Cc1c(-c2ccccc2)[nH]c2ccccc2c1=O | > 100 | – | > 100 | 84.9 | > 100 | > 100 | > 100 | > 100 | 66.7 | > 100 | > 100 | 38.3 | > 100
15 | COn1cc(C=O)c2ccccc21 | > 100 | > 100 | > 100 | > 100 | > 100 | > 100 | > 100 | > 100 | > 95.9 | > 100 | > 84.9 | > 95.1 | > 100
16 | O=C1c2cc3c(cc2CC12Cc1cc4c(cc1C2=O)CCC4)CCCC3 (configuration not stated) | > 100 | > 100 | > 100 | > 100 | > 100 | > 100 | > 100 | > 100 | > 100 | > 100 | – | > 100 | > 100
17 | CCC1OC2C(CC=C(C)C)=C3OC(C)(O)C(C)(CC)C(OC(=O)c4ccccc4)C3=C3OC(=O)C=C1C32 (configuration not stated) | 43.7 | 47.6 | > 100 | > 100 | > 100 | > 100 | > 100 | > 100 | > 100 | > 100 | – | > 100 | > 100

Row | SMILES | TGI (SK-MEL-5 melanoma) [µM] | TGI (NCI-H522 lung) [µM] | TGI (CAKI-1 renal) [µM] | TGI (HOP-62 NSCLC) [µM] | TGI (MOLT-4 leukemia) [µM] | TGI (MALME-3M melanoma) [µM] | TGI (HCT-15 colon) [µM] | TGI (SK-OV-3 ovarian) [µM] | TGI (SF-295 CNS) [µM] | TGI (OVCAR-5 ovarian) [µM] | TGI (NCI-H226 lung) [µM] | TGI (SNB-75 CNS) [µM] | TGI (EKVX NSCLC) [µM]
18 | CO[C@H]1[C@@H](O)[C@@H](C)O[C@@H](O[C@H]2CC[C@@]3(C)[C@H](CC[C@@H]4[C@@H]3CC[C@]3(C)[C@@H](C5=CC(=O)OC5)[C@@H](OC(C)=O)C[C@]43O)C2)[C@@H]1O | 0.201 | 0.0368 | 0.0719 | 0.0878 | – | 0.0445 | 0.292 | 0.188 | 0.55 | 0.214 | 0.411 | 0.332 | 0.0568
19 | CCN(CC)c1ccc2cc(-c3nnc(-c4ccccc4)o3)c(=O)oc2c1 | > 100 | > 100 | > 100 | > 74.1 | – | > 100 | > 100 | 21.2 | > 100 | > 100 | > 70.7 | 69 | > 100
20 | O=c1[nH]cc(COCC(F)(F)C(F)(F)C(F)(F)C(F)F)c(=O)[nH]1 | > 100 | > 100 | > 100 | > 100 | > 100 | > 100 | > 100 | > 100 | > 100 | > 100 | – | > 100 | > 100
21 | CCOC(=O)C1(C(=O)OCC)CN(CC)CN(c2ccccc2)C1 | > 100 | 56.1 | 31.8 | 40.4 | 40.4 | 69.2 | 39 | > 100 | > 100 | 34.9 | – | 39.3 | 34
22 | Cc1ccc2c(c1CCCC(C)(C)O)C(=O)C(=O)C(C(C)C)=C2O | > 100 | > 100 | > 100 | – | > 100 | > 100 | > 100 | > 100 | > 100 | – | > 100 | > 100 | > 100
23 | COc1cc2c(cc1OC)C(O)[C@H](Br)C(C)(C)O2 (some centres not stated) | > 100 | > 100 | – | > 100 | > 100 | > 100 | > 100 | > 100 | > 100 | > 100 | > 100 | > 100 | > 100
24 | CN(Nc1cc(=O)[nH]c(=O)[nH]1)c1ccccc1 | > 100 | – | > 100 | > 100 | > 100 | > 100 | – | > 100 | > 100 | > 100 | > 100 | > 100 | > 100
25 | COc1ccc(C[N+]23C(CC[C@H]2c2ccccc2)CC[C@H]3c2ccccc2)cc1 (some centres not stated) | 15.7 | 45.4 | > 100 | 67.3 | 90.1 | 30.8 | – | 87.7 | 61.7 | > 100 | 55 | 54.1 | 69.8
26 | Cc1ccc(C2CC(c3ccco3)=NN2c2ccccc2)o1 (configuration not stated) | > 100 | > 100 | – | > 100 | > 100 | > 100 | > 100 | – | > 100 | > 100 | > 100 | > 100 | > 100
27 | C/C(=C1/CCCC2(N=NCC2c2ccccc2)C1=O)c1ccccc1 (configuration not stated) | 25.3 | 59.6 | – | – | 48.1 | 59.7 | > 100 | > 100 | > 100 | > 100 | 41.3 | 99.7 | > 100
28 | COc1c(C)c2c(c(C)c1Cl)Oc1c(C=O)c(O)c(Cl)c(C)c1C(=O)O2 | > 100 | 96.4 | > 100 | 93.7 | 65.2 | 61 | – | > 100 | > 100 | 78.8 | 94.6 | 79.7 | 46.2
29 | Clc1ccc(Cl)c(Nc2ccnc(SCc3ccccc3)n2)c1 | > 100 | > 100 | > 100 | > 100 | > 100 | > 100 | > 100 | > 100 | > 100 | > 100 | – | > 100 | > 100
30 | N#CSc1nc[nH]c1C(N)=O | > 100 | > 100 | > 81.6 | > 100 | – | 56.6 | > 100 | > 100 | > 100 | > 100 | > 100 | > 100 | > 100
31 | COc1ccc(C(=O)C(CO)Oc2ccccc2OC)cc1OC (configuration not stated) | > 100 | > 100 | > 100 | > 100 | > 100 | > 100 | > 100 | > 100 | > 100 | > 100 | – | > 100 | > 100
32 | COc1ccc2c(c1)CC[C@@H]1[C@@H]2CC[C@]2(C)C(=O)/C(=C/c3ccc(OC)c(OC)c3)C[C@@H]12 | > 100 | – | > 100 | > 100 | > 100 | > 100 | > 100 | > 100 | > 100 | > 100 | – | > 100 | > 100
33 | CNC(=S)N/N=C(C)\C(=N/NC(=S)NC)c1ccccc1 | > 100 | > 100 | > 100 | > 100 | – | > 100 | > 100 | > 100 | > 100 | > 100 | > 100 | > 100 | > 100
